Test results as given in patent publication US20260232662A1, “MIR-124 INDUCER, AND PREPARATION METHOD THEREFOR AND USE THEREOF” (NANJING SYNNOCARE PHARMACEUTICAL TECHNOLOGY CO., LTD., priority 2023, published 2026).

Test system: miR-124
Experiment: Induction of miR-124 expression in PBMC cells (qPCR)
Type: cell-based
Conditions: Homo sapiens, 72 h, 0.1 μM compound, human PBMCs stimulated with PMA/ionomycin, miR-191 reference gene, read-out: miR-124 expression, Fold change vs DMSO
Procedure: This study evaluated the ability of the compound of the present invention to influence miR-124 transcriptional activity in vitro. The experiment analyzed miR-124 expression in human PBMCs (Sailybio) using quantitative PCR (qPCR).
Thawed human PBMCs (1 mL) were added to 19 mL of culture medium (RPMI1640+10% hFBS+1‰ 2-mercaptoethanol) and the PBMCs were incubated in a cell culture incubator for 30 minutes. The PBMCs were collected and the cells (3.0*10^6 cells/well/3 mL) were resuspended in medium containing PMA (10 ng/mL; Invivogen) and ionomycin (200 ng/mL; Invivogen). The cells were incubated in a 6-well plate for 48 hours. Diluted compound was added to the cells to achieve a final concentration of 0.1 μM. After 72 hours, the samples were centrifuged and the cells were collected.
Total miRNA was extracted from the cells using the MiPure Cell/Tissue miRNA Kit (Vazyme) according to the manufacturer's instructions, followed by purification. The purified samples were treated with genomic DNA elimination buffer, and reverse transcription was performed using a GeneAmp PCR System. The resulting cDNA was subjected to quantitative real-time PCR (qPCR) analysis on a QuantStudio™ 7 Flex Real-Time PCR System. Data analysis was performed using the QuantStudio 7 software with default settings to automatically determine Ct values, and the results were exported. In this assay, miR-191 was used as the reference gene, and the DMSO-treated group served as the control. The relative expression of miR-124 was calculated using the following formula: […]

Structure (SMILES)	fold induction at 0.1 µM
Cn1c(=O)c(Nc2ccc(OC(F)(F)F)cc2)nc2c(Cl)cccc21 [Compound 1, 5-Chloro-1-methyl-3-((4-(trifluoromethoxy)phenyl)amino) quinoxalin-2(1H)-one]	16
FC(F)(F)Oc1ccc(Nc2nc3c(Cl)cccc3n3cnnc23)cc1 [Compound 6]	11.9
FC(F)(F)Oc1ccc(NC2=Nc3c(Cl)cccc3N3CCN=C23)cc1 [Compound 9]	26.9
Cn1c(=O)c(Nc2ccc(SC(F)(F)F)cc2)nc2c(Cl)cccc21 [Compound 10]	15.4
Cn1c(=O)c(Nc2ccc(C(F)(F)F)cc2)nc2c(Cl)cccc21 [Compound 11]	18.4
Cn1c(=O)c(Nc2ccc3c(c2)OC(F)(F)O3)nc2c(Cl)cccc21 [Compound 12]	22
Cn1c(=O)c(Nc2ccc(OC(F)(F)F)cc2)nc2c(F)cc(Cl)cc21 [Compound 13]	20.9
Cn1c(=O)c(Nc2ccc3c(c2)OC(F)(F)O3)nc2c(F)cc(Cl)cc21 [Compound 14]	24.7
FC(F)(F)Sc1ccc(Nc2nc3c(Cl)cccc3n3ccnc23)cc1 [Compound 15]	12.7
FC(F)(F)c1ccc(Nc2nc3c(Cl)cccc3n3ccnc23)cc1 [Compound 16]	13.4
FC1(F)Oc2ccc(Nc3nc4c(Cl)cccc4n4ccnc34)cc2O1 [Compound 17]	19
FC(F)Oc1ccc(Nc2nc3c(Cl)cccc3n3ccnc23)cc1 [Compound 21]	15.5
FS(F)(F)(F)(F)c1ccc(Nc2nc3c(Cl)cccc3n3ccnc23)cc1 [Compound 22]	15.3
Fc1cc(Nc2nc3c(Cl)cccc3n3ccnc23)ccc1C(F)(F)F [Compound 28]	10.4
FC(F)(F)c1ccc(Nc2nc3c(Cl)cccc3n3ccnc23)cc1Cl [Compound 29]	9.32
FC(F)(F)c1ccc(Nc2nc3c(Cl)cccc3n3ccnc23)nc1 [Compound 34]	14.7
FC1(F)Cc2cc(Nc3nc4c(Cl)cccc4n4ccnc34)ccc2O1 [Compound 39, 6-Chloro-N-(2,2-difluoro-2,3-dihydrobenzofuran-5-yl) imidazolo [1,2-a] quinoxalin-4-amine]	16.8
FC1(F)Oc2ccc(Nc3nc4c(Cl)cccc4n4ccnc34)cc2C1(F)F [Compound 40, 6-Chloro-N-(2,2,3,3-tetrafluoro-2,3-dihydrobenzofuran-5-yl) imidazolo [1,2-a] quinoxalin-4-amine]	17.5
Fc1cccc2c1nc(Nc1ccc(OC(F)(F)F)cc1)c1nccn12 [Compound 41]	24.4
Fc1cccc2c1nc(Nc1ccc3c(c1)OC(F)(F)O3)c1nccn12 [Compound 42]	14.1
Fc1cccc2c1nc(Nc1ccc(OC(F)(F)F)c(Cl)c1)c1nccn12 [Compound 44]	17.5

Structure (SMILES)	fold induction at 0.1 µM
Fc1cccc2c1nc(Nc1ccc(C(F)(F)F)cc1)c1nccn12 [Compound 45]	17.9
Fc1cc(Nc2nc3c(F)cccc3n3ccnc23)ccc1C(F)(F)F [Compound 46]	9.99
Fc1cccc2c1nc(Nc1ccc(C(F)(F)F)c(Cl)c1)c1nccn12 [Compound 47]	9.86
FC(F)(F)Oc1ccc(Nc2nc3c(Br)cccc3n3ccnc23)cc1 [Compound 48]	20.4
Fc1cc(Nc2nc3c(Br)cccc3n3ccnc23)ccc1OC(F)(F)F [Compound 49]	19.5
FC(F)(F)Oc1ccc(Nc2nc3c(Br)cccc3n3ccnc23)cc1Cl [Compound 50]	18.5
FC(F)(F)c1ccc(Nc2nc3c(Br)cccc3n3ccnc23)cc1 [Compound 51]	23.1
Fc1cc(Nc2nc3c(Br)cccc3n3ccnc23)ccc1C(F)(F)F [Compound 52]	22.3
Fc1cc(Cl)cc2c1nc(Nc1ccc(OC(F)(F)F)cc1)c1nccn12 [Compound 54]	14.9
Fc1cc(Cl)cc2c1nc(Nc1ccc3c(c1)OC(F)(F)O3)c1nccn12 [Compound 55]	22.3
Fc1cc(Nc2nc3c(F)cc(Cl)cc3n3ccnc23)ccc1OC(F)(F)F [Compound 56]	17.2
Fc1cc(Cl)cc2c1nc(Nc1ccc(C(F)(F)F)cc1)c1nccn12 [Compound 58]	27.3
FC(F)(F)Oc1ccc(Nc2nc3c(Cl)cc(Cl)cc3n3ccnc23)cc1 [Compound 61]	12.1
FC(F)(F)c1ccc(Nc2nc3c(Cl)cc(Cl)cc3n3ccnc23)cc1 [Compound 62]	15.5
Fc1cc(Nc2nc3c(Cl)cc(Cl)cc3n3ccnc23)ccc1C(F)(F)F [Compound 63]	18.4
FC(F)(F)Oc1ccc(Nc2nc3c(Cl)cc(Cl)cc3n3ccnc23)cc1Cl [Compound 66]	22.7
Fc1cc(NC2=Nc3c(Cl)cccc3N3CCN=C23)ccc1C(F)(F)F [Compound 69]	22.9
FC(F)(F)Oc1ccc(NC2=Nc3c(Cl)cccc3N3CCN=C23)cc1Cl [Compound 72]	19
Fc1cccc2c1N=C(Nc1ccc(OC(F)(F)F)cc1)C1=NCCN12 [Compound 73]	8.59
Fc1cccc2c1N=C(Nc1ccc(C(F)(F)F)cc1)C1=NCCN12 [Compound 74]	31.6
FC(F)(F)Oc1ccc(NC2=Nc3c(Br)cccc3N3CCN=C23)cc1 [Compound 79]	17.8

Structure (SMILES)	fold induction at 0.1 µM
FC(F)(F)c1ccc(NC2=Nc3c(Br)cccc3N3CCN=C23)cc1 [Compound 80]	19.8
Fc1cc(NC2=Nc3c(Br)cccc3N3CCN=C23)ccc1C(F)(F)F [Compound 81]	15.3
Fc1cc(NC2=Nc3c(Br)cccc3N3CCN=C23)ccc1OC(F)(F)F [Compound 83]	18.3
FC(F)(F)Oc1ccc(NC2=Nc3c(Cl)cc(Cl)cc3N3CCN=C23)cc1 [Compound 85]	10.4
FC(F)(F)Oc1ccc(NC2=Nc3c(Cl)cc(Cl)cc3N3CCN=C23)cc1Cl [Compound 87]	15.8
Fc1cc(Cl)cc2c1N=C(Nc1ccc(OC(F)(F)F)cc1)C1=NCCN12 [Compound 91]	27.6
Fc1cc(NC2=Nc3c(F)cc(Cl)cc3N3CCN=C23)ccc1OC(F)(F)F [Compound 92]	18.8
Fc1cc(Cl)cc2c1N=C(Nc1ccc(C(F)(F)F)cc1)C1=NCCN12 [Compound 95]	27
Fc1cc(NC2=Nc3c(F)cc(Cl)cc3N3CCN=C23)ccc1C(F)(F)F [Compound 96]	17.7
Fc1cccc2nc(Nc3ccc(OC(F)(F)F)cc3)c3nccn3c12 [Compound B2, 9-fluoro-N-(4-(trifluoromethoxy)phenyl)imidazolo [1,2-a]quinoxalin-4-amine]	37.4
FC(F)(F)Oc1ccc(Nc2nc3cccc(Br)c3n3ccnc23)cc1 [Compound B3, 9-bromo-N-(4-(trifluoromethoxy)phenyl)imidazolo [1,2-a]quinoxalin-4-amine]	23.5
Fc1ccc2nc(Nc3ccc(OC(F)(F)F)cc3)c3nccn3c2c1 [Compound B5, 8-fluoro-N-(4-(trifluoromethoxy)phenyl)imidazolo [1,2-a]quinoxalin-4-amine]	31.3
FC(F)(F)Oc1ccc(Nc2nc3ccc(Br)cc3n3ccnc23)cc1 [Compound B6, 8-bromo-N-(4-(trifluoromethoxy)phenyl)imidazolo [1,2-a]quinoxalin-4-amine]	22
Fc1ccc2c(c1)nc(Nc1ccc(OC(F)(F)F)cc1)c1nccn12 [Compound B8, 7-fluoro-N-(4-(trifluoromethoxy)phenyl)imidazolo [1,2-a]quinoxalin-4-amine]	33.5
FC(F)(F)Oc1ccc(Nc2nc3ccc(Cl)c(Cl)c3n3ccnc23)cc1 [Compound B16, 8,9-dichloro-N-(4-(trifluoromethoxy)phenyl)imidazolo [1,2-a]quinoxalin-4-amine]	33.4
Fc1ccc2nc(Nc3ccc(OC(F)(F)F)cc3)c3nccn3c2c1Cl [Compound B17, 9-chloro-8-fluoro-N-(4-(trifluoromethoxy)phenyl)imidazolo [1,2-a]quinoxalin-4-amine]	31.9
FC(F)(F)Oc1ccc(Nc2nc3ccc(Br)c(Cl)c3n3ccnc23)cc1 [Compound B18, 8-bromo-9-chloro-N-(4-(trifluoromethoxy)phenyl)imidazolo [1,2-a]quinoxalin-4-amine]	22.6
FC(F)(F)Oc1ccc(Nc2nc3cc(Cl)cc(Cl)c3n3ccnc23)cc1 [Compound B21, 7,9-dichloro-N-(4-(trifluoromethoxy)phenyl)imidazolo [1,2-a]quinoxalin-4-amine]	35.2
Fc1cc(Cl)c2c(c1)nc(Nc1ccc(OC(F)(F)F)cc1)c1nccn12 [Compound B22, 9-chloro-7-fluoro-N-(4-(trifluoromethoxy)phenyl)imidazolo [1,2-a]quinoxalin-4-amine]	32.5
